Values belong to the compound of their own block, whether it stands above or below them.
How the values were obtained:
[1] = tested on: 20-HETE synthase originated from rat kidney microsome; experiment: Inhibitory effect of 20-HETE synthase originated from rat kidney microsome; assay type: biochemical; conditions: rat kidney microsome; for Inhibition rate (1 μM): 20-HETE production without compound set to 100%; for IC50: concentration at which production of 20-HETE was inhibited to 50%
Description: Experimental Example [Inhibitory effect of 20-HETE synthase originated from rat kidney microsome]
Regarding the compounds listed in Table 1, their inhibitory activity to production of 20-HETE was examined.
The subject compound for this examination was added to a buffer comprising 50 mM of 3-morpholinopropane sulfonic acid (pH7.4), 5 mM of magnesium chloride and 1 mM of ethylenediaminetetraacetic acid (EDTA) disodium salt.
After that, the rat kidney microsome (microsome fraction prepared from the kidney of a spontaneous hypertension rat (male, 6 weeks of age)) as an enzyme, [5,6,8,9,11,12,14,15] tritium-arachidonic acid (supplied by Amasham) as a substrate, and NADPH (supplied by Sigma) as a coenzyme were added and reacted for 1.5 hours at 37° C.
After the reaction, formic acid was added to stop the reaction, and then acetonitrile (final concentration of 50%) was added and left for 1.5 hours at room temperature.
The activity of 20-HETE synthase was measured by using a high performance liquid chromatograph having a detector for radioactive substances (supplied by Gilson), and equipped with a C18 reversed phase column (Biocyl C18, supplied by Bio-rad).

[2] = 1 μM of the subject compound added

SMILES: CC(C)(C)c1ccc(N/C=N/O)cc1 [Comp. 2, N-(4-tert-butylphenyl)-N′-hydroxy-formamidine]
melting point: 113.5 to 114.5 °C

SMILES: O/N=C/Nc1ccc(C2CCCCC2)cc1 [Comp. 5]
Inhibition rate (1 μM) [1, 2]: 99.9
IC50 [1]: 3.8 nM
melting point: 153 to 154 °C

SMILES: COc1ccc(C(C)(C)C)cc1N/C=N/O [Comp. 6]
Inhibition rate (1 μM) [1, 2]: 99.9
melting point: 119.5 to 120.5 °C

SMILES: O/N=C/Nc1ccc(F)cc1 [Comp. 12]
Inhibition rate (1 μM) [1, 2]: 77.1
IC50 [1]: 1420 nM
melting point: 139.5 to 140.5 °C

SMILES: Cc1ccc(N/C=N/O)cc1C [Comp. 13]
Inhibition rate (1 μM) [1, 2]: 95.9
IC50 [1]: 118 nM
melting point: 116 to 118 °C

SMILES: O/N=C/Nc1ccc(Cl)cc1 [Comp. 15]
Inhibition rate (1 μM) [1, 2]: 92.9
IC50 [1]: 288 nM
melting point: 155.5 to 156 °C

SMILES: COc1ccc(C)cc1N/C=N/O [Comp. 17]
Inhibition rate (1 μM) [1, 2]: 85.3
melting point: 136.5 to 139 °C

SMILES: COc1ccc(N/C=N/O)cc1 [Comp. 18]
Inhibition rate (1 μM) [1, 2]: 94.6
IC50 [1]: 45.2 nM
melting point: 139 to 140 °C

SMILES: COc1ccc(N/C=N/O)c(C)c1 [Comp. 19]
Inhibition rate (1 μM) [1, 2]: 88.0
IC50 [1]: 338 nM
melting point: 144 to 145 °C

SMILES: O/N=C/Nc1ccc(Cl)c(Cl)c1 [Comp. 24]
Inhibition rate (1 μM) [1, 2]: 89.2
IC50 [1]: 520 nM
melting point: 119 to 120.5 °C

SMILES: O/N=C/Nc1ccc(Cl)cc1F [Comp. 25]
Inhibition rate (1 μM) [1, 2]: 87.0
melting point: 142.5 to 144.5 °C

SMILES: COc1ccc(Cl)cc1N/C=N/O [Comp. 26]
Inhibition rate (1 μM) [1, 2]: 86.0
IC50 [1]: 204 nM
melting point: 155 to 156.5 °C

SMILES: O/N=C/Nc1ccc(C(F)(F)F)cc1 [Comp. 27]
Inhibition rate (1 μM) [1, 2]: 103.3
IC50 [1]: 1.7 nM
melting point: 140.5 to 142 °C

SMILES: CC(C)c1ccc(N/C=N/O)cc1 [Comp. 30]
melting point: 143 to 143.5 °C

SMILES: COC(=O)c1ccc(N/C=N/O)cc1 [Comp. 37]
melting point: 167 to 167.5 °C

SMILES: CCCc1cc(Br)c(N/C=N/O)c(Br)c1 [Comp. 48]
melting point: 155 to 156 °C

SMILES: COc1cccc(C)c1N/C=N/O [Comp. 52]
melting point: 145 to 146 °C

SMILES: CCc1cc(Br)cc(CC)c1N/C=N/O [Comp. 53]
melting point: 159 to 160 °C

SMILES: COc1cc(N/C=N/O)cc(OC)c1OC [Comp. 103]
melting point: 143 to 146 °C

SMILES: COC(=O)c1cc(N/C=N/O)cc(C(=O)OC)c1 [Comp. 129]
melting point: 183 to 183.5 °C

SMILES: O/N=C/Nc1ccc2c(c1)OCO2 [Comp. 230]
melting point: 165 to 165.5 °C

SMILES: O/N=C/Nc1ccc(Cc2ccccc2)cc1 [Comp. 233]
melting point: 118 to 119.5 °C

SMILES: O/N=C/Nc1ccc(N2CCOCC2)c(Cl)c1 [Comp. 302]
melting point: 177.5 to 178 °C

SMILES: O=c1ccc2cc(N/C=N/O)ccc2o1 [Comp. 304]
Inhibition rate (1 μM) ([1]; 1 μM of subject compound): 68.5

SMILES: O=S(=O)(CCSc1ccccc1N/C=N/O)c1ccc(Cl)cc1 [Comp. 315]
Inhibition rate (1 μM) ([1]; 1 μM of subject compound): 50.7

Second part, led by results:

melting point: 84.5 to 85.5 °C
SMILES: CCCCc1ccccc1N/C=N/O [Comp. 3]
Inhibition rate (1 μM) [1, 2]: 98.9

melting point: 101 to 102.5 °C
SMILES: CCC(C)c1ccc(N/C=N/O)cc1 (stereo not drawn) [Comp. 4]

IC50 [1]: 12.1 nM
melting point: 122.5 to 124 °C
SMILES: CCCCCc1ccc(N/C=N/O)cc1 [Comp. 7]
Inhibition rate (1 μM) [1, 2]: 110.5

melting point: 141 to 142 °C
SMILES: CC(C)(C)c1ccccc1N/C=N/O.Cl [Comp. 8]
Inhibition rate (1 μM) [1, 2]: 99.9

melting point: 108 to 110 °C
SMILES: CCCCCCc1ccc(N/C=N/O)cc1 [Comp. 9]

melting point: 143.5 to 144.5 °C
SMILES: Cc1ccc(N/C=N/O)cc1 [Comp. 10]

IC50 [1]: 297 nM
melting point: 151 to 152.5 °C
SMILES: Cc1ccc(N/C=N/O)c(Cl)c1 [Comp. 11]
Inhibition rate (1 μM) [1, 2]: 92.7

IC50 [1]: 163 nM
melting point: 151 to 153 °C
SMILES: Cc1ccc(Cl)c(N/C=N/O)c1 [Comp. 14]
Inhibition rate (1 μM) [1, 2]: 91.7

melting point: 141 to 142 °C
SMILES: CCc1ccc(N/C=N/O)cc1 [Comp. 16]

IC50 [1]: 228 nM
melting point: 149 to 150 °C
SMILES: CCOc1ccc(N/C=N/O)cc1 [Comp. 20]
Inhibition rate (1 μM) [1, 2]: 97.5

melting point: 115.5 to 116.5 °C
SMILES: CCc1cccc(N/C=N/O)c1 [Comp. 21]
Inhibition rate (1 μM) [1, 2]: 81.1

IC50 [1]: 476 nM
melting point: 110 to 111.5 °C
SMILES: O/N=C/Nc1cccc(Cl)c1 [Comp. 23]
Inhibition rate (1 μM) [1, 2]: 82.8

IC50 [1]: 4.7 nM
melting point: 119 to 120.5 °C
SMILES: CCCCCCCc1ccc(N/C=N/O)cc1 [Comp. 28]
Inhibition rate (1 μM) [1, 2]: 92.5

melting point: 137.5 to 138.5 °C
SMILES: CCOC(=O)c1cccc(N/C=N/O)c1 [Comp. 127]

melting point: 116.5 to 117.5 °C
SMILES: CCCCc1ccc(C)c(N/C=N/O)c1 [Comp. 133]

melting point: 130.5 to 131.5 °C
SMILES: NS(=O)(=O)c1ccccc1N/C=N/O [Comp. 236, N-(2-aminosulfonylphenyl)-N′-hydroxyformamidine]

melting point: 132 to 133 °C
SMILES: CCCOc1ccc(N/C=N/O)cc1 [Comp. 317]

Reference: patent US7078400B2, “20-HETE synthase inhibitor” (Taisho Pharmaceutical Co., Ltd., priority 1999, dated 2006)
